Source: patent US20240226241A1, “FORMULATIONS FOR INTRAOCULAR DELIVERY OF PEPTIDES DERIVED FROM TYPE IV COLLAGEN” (AsclepiX Therapeutics, Inc., priority 2022, published 2024)
No end group written: not given here.

How the values were obtained:
[1] = rabbit, in vivo
Method: (§1) This example evaluates the pharmacokinetics (PK)/tolerability of the AXT107 suspension (5% sucrose, 0.9% NaCl) at 4 different dose levels administered by suprachoroidal (Sch) injection in female Dutch Belted rabbits. In Phase 1 of these experiments, animals received a 100 μL SCh injection in both eyes on Day 0. In these experiments, Group 1 received 469 μg of AXT107 peptide, Group 2 received 246 μg of AXT107 peptide, and Group 3 received vehicle (i.e., 5% sucrose in saline).
(§2) Blood was collected from Group 3 pre-dose, and in terminal animals on Day 90, and was processed for plasma. All eyes in Groups 1 and 2 and two Group 3 eyes were collected and dissected. Blood and ocular tissues underwent PK analysis.
(§3) In the next studies, animals received a 100 μL SCh injection (of AXT107 suspension, 5% sucrose and 0.9% NaCl) in both eyes on Day 0. Group 1 animals received 340 μg of AXT107 peptide, Group 2 animals received 219 μg AXT107 peptide, Group 3 animals received 142 μg of AXT107 peptide, and Group 4 animals received 115 μg AXT107 peptide.
(§4) On Days 1, 15, 30, 60, and 90, n=2 animals/group were euthanized and plasma and ocular tissues were collected for PK.
(§5) Plasma and ocular tissues collected during the study were analyzed for AXT107 peptide PK parameters by non-GLP liquid chromatography with tandem-mass spectrometry (LC/MS/MS).

[2] = Pharmacokinetics after suprachoroidal injection, LC/MS/MS of plasma and ocular tissues; details: SCh injection
Method: as §1, §2, §3, §4, §5

[3] = Tolerability after suprachoroidal injection (ocular examination, tonometry, OCT, H&E histopathology); details: for tolerability: 100 μL SCh injection in both eyes on Day 0, to Day 90
Method: This example evaluates the pharmacokinetics (PK)/tolerability of the AXT107 suspension (5% sucrose, 0.9% NaCl) at 4 different dose levels administered by suprachoroidal (Sch) injection in female Dutch Belted rabbits. In Phase 1 of these experiments, animals received a 100 μL SCh injection in both eyes on Day 0.
Ocular examinations were performed at baseline, and on Days 1, 3, 7, 15, 30, 60, and 90. […] Tonometry was performed at baseline, and on Days 1, 3, 7, 15, 30, 60, and 90. […] Optical coherence tomography (OCT) was performed at baseline, post-dose to confirm SCh dosing, and on Day 15.
All eyes in Groups 1 and 2 and two Group 3 eyes were collected and dissected. […] From Group 3, two eyes were collected and processed for hematoxylin & eosin (H&E) histopathology.
In the next studies, animals received a 100 μL SCh injection (of AXT107 suspension, 5% sucrose and 0.9% NaCl) in both eyes on Day 0. […] Ocular examinations were performed at baseline and on Days 1, 9, 30, 60, and 90.
Tonometry was performed at baseline and on Days 1, 9, 30, 60, and 90.
OCT was performed at baseline, post-dose to confirm SCh dosing, and in terminal animals on Days 15 and 30.
On Day 90, an additional Group 1 animal was euthanized and OU were processed for H&E histopathology.

## LRRFSTAPFAFIDINDVINF [AXT107 peptide]
[1]
  drug levels in choroid/RPE: present
[2]
  drug levels in retina: present
[2]; all timepoints
  drug levels in aqueous humor: absent
  drug levels in plasma: absent
[3]; Group 1 (340 μg), Day 90, both eyes, considered incidental (needle damage), unrelated to AXT107
  H&E histopathology of eyes: mild mononuclear cell infiltrate in the limbal conjunctiva
[3]; Phase 1: 469 μg and 246 μg
  tolerability: well tolerated
[3]; all doses
  tolerability: well tolerated
